{
  "source": "ChEMBL document CHEMBL1122367",
  "about": "“Synthesis and antihypertensive activity of a series of spiro[1,3,4,6,7,11b-hexahydro-2H-benzo[a]quinolizine-2,5'-oxazolidin-2'-one]s” (1983)",
  "key": {"Rattus norvegicus [1]": {"system": "Rattus norvegicus", "experiment": "Antihypertensive activity as percentage fall in systolic blood pressure in spontaneously hypertensive rats 4 hr after 1.25 mg/kg po administration"}, "Rattus norvegicus [2]": {"system": "Rattus norvegicus", "experiment": "Antihypertensive activity as percentage fall in systolic blood pressure in spontaneously hypertensive rats 2 hr after 0.31 mg/kg po administration", "type": "functional, Artery"}, "Rattus norvegicus [3]": {"system": "Rattus norvegicus", "experiment": "Antihypertensive activity as percentage fall in systolic blood pressure in spontaneously hypertensive rats 4 hr after 0.31 mg/kg po administration", "type": "functional, Artery"}, "Rattus norvegicus [4]": {"system": "Rattus norvegicus", "experiment": "Antihypertensive activity as percentage fall in systolic blood pressure in spontaneously hypertensive rats 1 hr after 0.31 mg/kg po administration", "type": "functional, Artery"}, "Rattus norvegicus [5]": {"system": "Rattus norvegicus", "experiment": "Antihypertensive activity as percentage fall in systolic blood pressure in spontaneously hypertensive rats 3h after 1.25 mg/kg po administration"}, "Rattus norvegicus [6]": {"system": "Rattus norvegicus", "experiment": "Antihypertensive activity as percentage fall in systolic blood pressure in spontaneously hypertensive rats 1 hr after 1.25 mg/kg po administration"}, "Rattus norvegicus [7]": {"system": "Rattus norvegicus", "experiment": "Antihypertensive activity as percentage fall in systolic blood pressure in spontaneously hypertensive rats 3h after 0.31 mg/kg po administration", "type": "functional, Artery"}, "Rattus norvegicus [8]": {"system": "Rattus norvegicus", "experiment": "Antihypertensive activity as percentage fall in systolic blood pressure in spontaneously hypertensive rats 2 hr after 1.25 mg/kg po administration"}, "Rattus norvegicus [9]": {"system": "Rattus norvegicus", "experiment": "Antihypertensive activity as percentage fall in systolic blood pressure in spontaneously hypertensive rats 1 hr after 25 mg/kg po administration;NS means nonsignificant difference between treated and control group", "type": "functional, organism-based", "design": "dose 25 mg/kg", "settings": "Artery, at 25 mg/kg"}, "Rattus norvegicus [10]": {"system": "Rattus norvegicus", "experiment": "Percentage fall in systolic blood pressure in spontaneously hypertensive rats 3h after 50 mg/kg p.o. administration; Not significant.", "type": "functional, organism-based", "design": "dose 50 mg/kg", "settings": "Artery, at 50 mg/kg"}, "Rattus norvegicus [11]": {"system": "Rattus norvegicus", "experiment": "Antihypertensive activity as percentage fall in systolic blood pressure in spontaneously hypertensive rats 1 hr after 50 mg/kg po administration", "type": "functional, Artery"}, "Rattus norvegicus [12]": {"system": "Rattus norvegicus", "experiment": "Antihypertensive activity as percentage fall in systolic blood pressure in spontaneously hypertensive rats 4 hr after 25 mg/kg po administration;NS means nonsignificant difference between treated and control group", "type": "functional, organism-based", "design": "dose 25 mg/kg", "settings": "Artery, at 25 mg/kg"}, "Rattus norvegicus [13]": {"system": "Rattus norvegicus", "experiment": "Antihypertensive activity as percentage fall in systolic blood pressure in spontaneously hypertensive rats 3h after 25 mg/kg po administration", "type": "functional"}, "Rattus norvegicus [14]": {"system": "Rattus norvegicus", "experiment": "Percentage fall in systolic blood pressure in spontaneously hypertensive rats 2 hr after 50 mg/kg p.o. administration.", "type": "functional, Artery", "settings": "route oral"}, "Rattus norvegicus [15]": {"system": "Rattus norvegicus", "experiment": "Antihypertensive activity as percentage fall in systolic blood pressure in spontaneously hypertensive rats 4 hr after 50 mg/kg po administration", "type": "functional, Artery"}, "Rattus norvegicus [16]": {"system": "Rattus norvegicus", "experiment": "Antihypertensive activity as percentage fall in systolic blood pressure in spontaneously hypertensive rats 2 hr after 25 mg/kg po administration;NS means nonsignificant difference between treated and control group", "type": "functional, organism-based", "design": "dose 25 mg/kg", "settings": "Artery, at 25 mg/kg"}, "Rattus norvegicus [17]": {"system": "Rattus norvegicus", "experiment": "Antihypertensive activity as percentage fall in systolic blood pressure in spontaneously hypertensive rats 3h after 12.5 mg/kg po administration;NS means nonsignificant difference between treated and control group", "type": "functional, organism-based", "design": "dose 12.5 mg/kg", "settings": "Artery, at 12.5 mg/kg"}, "Rattus norvegicus [18]": {"system": "Rattus norvegicus", "experiment": "Antihypertensive activity as percentage fall in systolic blood pressure in spontaneously hypertensive rats 4 hr after 12.5 mg/kg po administration;NS means nonsignificant difference between treated and control group", "type": "functional, organism-based", "design": "dose 12.5 mg/kg", "settings": "Artery, at 12.5 mg/kg"}, "Rattus norvegicus [19]": {"system": "Rattus norvegicus", "experiment": "Antihypertensive activity as percentage fall in systolic blood pressure in spontaneously hypertensive rats 1 hr after 12.5 mg/kg po administration;NS means nonsignificant difference between treated and control group", "type": "functional, organism-based", "design": "dose 12.5 mg/kg", "settings": "Artery, at 12.5 mg/kg"}, "Rattus norvegicus [20]": {"system": "Rattus norvegicus", "experiment": "Antihypertensive activity as percentage fall in systolic blood pressure in spontaneously hypertensive rats 2 hr after 12.5 mg/kg po administration;NS means nonsignificant difference between treated and control group", "type": "functional, organism-based", "design": "dose 12.5 mg/kg", "settings": "Artery, at 12.5 mg/kg"}, "Rattus norvegicus [21]": {"system": "Rattus norvegicus", "experiment": "Antihypertensive activity as percentage fall in systolic blood pressure in spontaneously hypertensive rats 2 hr after 25 mg/kg po administration", "type": "functional, Artery"}, "Rattus norvegicus [22]": {"system": "Rattus norvegicus", "experiment": "Antihypertensive activity as percentage fall in systolic blood pressure in spontaneously hypertensive rats 1 hr after 25 mg/kg po administration", "type": "functional, Artery"}, "Rattus norvegicus [23]": {"system": "Rattus norvegicus", "experiment": "Antihypertensive activity as percentage fall in systolic blood pressure in spontaneously hypertensive rats 4 hr after 25 mg/kg po administration", "type": "functional, Artery"}},
  "note": "The source made the active and inactive calls. The calls are words filed in the database; no cut-off is given here.",
  "data": [
    {"molecule": "COc1cc2nc(N3CCN(C(=O)c4ccco4)CC3)nc(N)c2cc1OC", "note": "[PRAZOSIN]", "values": [
      {"measurement": "Fall", "setting": "Rattus norvegicus [1]", "result": 31, "unit": "%"},
      {"measurement": "Fall", "setting": "Rattus norvegicus [2]", "result": 31, "unit": "%"},
      {"measurement": "Fall", "setting": "Rattus norvegicus [3]", "result": 26, "unit": "%"},
      {"measurement": "Fall", "setting": "Rattus norvegicus [4]", "result": 19, "unit": "%"},
      {"measurement": "Fall", "setting": "Rattus norvegicus [5]", "result": 36, "unit": "%"},
      {"measurement": "Fall", "setting": "Rattus norvegicus [6]", "result": 26, "unit": "%"},
      {"measurement": "Fall", "setting": "Rattus norvegicus [7]", "result": 21, "unit": "%"},
      {"measurement": "Fall", "setting": "Rattus norvegicus [8]", "result": 46, "unit": "%"}
    ]},
    {"molecule": "CCN1C[C@]2(CCN3CCc4cc(OC)c(OC)cc4[C@@H]3C2)OC1=O", "values": [
      {"measurement": "Fall", "setting": "Rattus norvegicus [9]", "result": "Not significant"},
      {"measurement": "Fall", "setting": "Rattus norvegicus [10]", "result": "Not significant"},
      {"measurement": "Fall", "setting": "Rattus norvegicus [11]", "result": 43, "unit": "%"},
      {"measurement": "Fall", "setting": "Rattus norvegicus [12]", "result": "Not significant"},
      {"measurement": "Fall", "setting": "Rattus norvegicus [13]; Artery, at 25 mg/kg", "result": "Not significant"},
      {"measurement": "Fall", "setting": "Rattus norvegicus [14]", "result": 30, "unit": "%"},
      {"measurement": "Fall", "setting": "Rattus norvegicus [15]", "result": 18, "unit": "%"},
      {"measurement": "Fall", "setting": "Rattus norvegicus [16]", "result": "Not significant"}
    ]},
    {"molecule": "O=C(NC1CCN(CCc2c[nH]c3ccccc23)CC1)c1ccccc1", "note": "[INDORAMIN]", "values": [
      {"measurement": "Fall", "setting": "Rattus norvegicus [17]", "result": "inactive"},
      {"measurement": "Fall", "setting": "Rattus norvegicus [18]", "result": "inactive"},
      {"measurement": "Fall", "setting": "Rattus norvegicus [19]", "result": "inactive"},
      {"measurement": "Fall", "setting": "Rattus norvegicus [20]", "result": "inactive"},
      {"measurement": "Fall", "setting": "Rattus norvegicus [21]", "result": 28, "unit": "%"},
      {"measurement": "Fall", "setting": "Rattus norvegicus [13]", "result": 34, "unit": "%"},
      {"measurement": "Fall", "setting": "Rattus norvegicus [22]", "result": 27, "unit": "%"},
      {"measurement": "Fall", "setting": "Rattus norvegicus [23]", "result": 30, "unit": "%"}
    ]}
  ]
}
